From US20090263780A1, “Organ preservation fluid” (priority 2008, published 2009)

Tested on: Cortical neurons cultures
Assay: Neuron viability (MTT reduction test) after anoxic insult
Assay type: cell-based, Sprague-Dawley rats
Description: Neuron culture: Cortical neurons cultures were prepared from fetal Sprague-Dawley rats at 17-day gestation. Timed pregnant Sprague-Dawley rats were euthanized with isoflorane. After dissection of the cortical region of the fetal brain, cortical neurons were dispersed by trituration, centrifuged at 250 g for 5 minutes at 4° C., and suspended in a neurobasal medium supplemented with 25 μmol/L glutamic acid, 0.5 mmol/L glutamine, 1% antibiotic-antimycotic solution, and 2% B27 supplement. Cells were plated at 5×10^5 cells/ml on poly-L-lysine-coated 24-well plates. Cytosine (10 μmol/) was added at day 3. Neuron cultures were fed every 4 days with replacement of half of neurobasal medium containing 0.5 mmol/L glutamine, 1% antibiotic-antimycotic solution, and 2% B27 supplement. The culture plates were incubated at 37° C. in a humid atmosphere with 5% CO2. […]
Validation of neurons' survival: Neuronal viability was quantitatively evaluated by a methyl thiazole tetrazolium (MTT) reduction test. This quantifies the formation of a dark blue formazan product formed by the reduction of the tetrazolium ring of MTT by the mitochondrial succinate dehydrogenase in living cells. […] Cell viability corresponded to the value of the optical density read at 570 nm with background subtraction at 630 nm. Results were expressed as percent of the optical density measured in normal control cells.

B: 2 wt % albumin (native bovine serum albumin, molecular weight 68 kDa, pI 4.8) + ACSF
Neuronal viability after anoxia, result in words (ACSF supplemented with the polypeptide, anoxic environment, comparison): significantly increased neuronal viability
Neuron's viability (Percentage, Mean ± SD) (anoxia 60 mins at 37° C., culture media replaced by 2 wt % test polypeptide + ACSF, MTT 24 hours after anoxia, percent of optical density in normal control cells): 96 ± 3.9 Percentage
